Patent US9045491B2, “Thienyl [3,2-D] pyrimidin-4-one compounds, preparation method, pharmaceutical compositions and use thereof” (SHANGHAI INSTITUTE OF MATERIA MEDICA, CHINESE ACADEMY OF …, priority 2011, dated 2015)

Tests used:
DPP IV = target: T1, DPP IV (Mus musculus, UniProt P28843); assay: DPP IV inhibitory activity in vivo: DPP IV activity in plasma of ICR mouse after single oral dose; conditions: oral 3 mg/kg, compared with Alogliptin and Vildagliptin (LAF237), FIG. 1-6
T1 construct: from tissue; host or cells: plasma of ICR mouse
T1 sequence (P28843 37-760 limits assumed): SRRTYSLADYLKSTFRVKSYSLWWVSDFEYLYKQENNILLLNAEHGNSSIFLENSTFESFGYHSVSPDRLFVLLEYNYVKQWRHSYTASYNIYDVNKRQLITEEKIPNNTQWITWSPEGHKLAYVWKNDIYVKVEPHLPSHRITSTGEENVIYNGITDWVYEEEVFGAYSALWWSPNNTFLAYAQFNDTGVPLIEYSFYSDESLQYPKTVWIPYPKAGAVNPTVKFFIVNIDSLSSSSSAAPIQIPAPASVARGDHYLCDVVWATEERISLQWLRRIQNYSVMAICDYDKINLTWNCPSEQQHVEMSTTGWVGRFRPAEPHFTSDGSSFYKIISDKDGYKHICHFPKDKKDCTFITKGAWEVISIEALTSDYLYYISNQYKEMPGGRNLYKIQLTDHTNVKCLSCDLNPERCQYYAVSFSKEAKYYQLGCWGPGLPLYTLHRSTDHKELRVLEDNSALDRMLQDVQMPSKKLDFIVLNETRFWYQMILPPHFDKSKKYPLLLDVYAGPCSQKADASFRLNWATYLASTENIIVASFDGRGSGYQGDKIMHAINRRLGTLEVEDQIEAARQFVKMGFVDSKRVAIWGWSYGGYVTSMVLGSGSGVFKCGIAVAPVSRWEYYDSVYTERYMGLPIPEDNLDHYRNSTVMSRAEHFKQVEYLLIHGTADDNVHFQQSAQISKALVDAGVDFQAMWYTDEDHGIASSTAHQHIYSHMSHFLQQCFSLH

[1] = Safety evaluation: single dose 100 mg/kg by gavage, one week observation; type: in vivo, ICR mouse
Protocol: After grouping, each compound was administrated once through gavage according to the dose of 100 mg/kg at the same time.

[2] = normal ICR mouse, 100 mg/kg single dose, 7th day
[3] = normal ICR mouse, 100 mg/kg single dose, 1 d after administration
[4] = normal ICR mouse, 100 mg/kg single dose, 2 d after administration
[5] = normal ICR mouse, 100 mg/kg single dose, 3 d after administration
[6] = normal ICR mouse, 100 mg/kg single dose, 4 d after administration
[7] = normal ICR mouse, 100 mg/kg single dose, 5 d after administration
[8] = normal ICR mouse, 100 mg/kg single dose, 6 d after administration
[9] = normal ICR mouse, 100 mg/kg single dose, 7 d after administration
[10] = normal ICR mouse, 100 mg/kg single dose, before administration

SMILES: COC(=O)c1cc2nc(N3CCCC(N)C3)n(Cc3ccccc3C#N)c(=O)c2s1 (centres unmarked) [DC291407]
- DPP IV activity of ICR mouse plasma after single dose (given as hypoglycemic ability in vivo) (DPP IV): comparable to that of Alogliptin (3 mg), and better than that of Vildagliptin (LAF237, 15 mg)
- effect on body weight (conclusion) ([1]; ICR mouse, 100 mg/kg single dose): possibly had no effect on body weight
- acute toxicity ([1]; ICR mouse, 100 mg/kg single dose by gavage, one week): did not reflect obvious acute toxicity
- body weight versus normal control group (statistics) ([1]; ICR mouse, 100 mg/kg single dose, from second day to 7 days, 100 mg/kg): significant statistical difference
- kidney index versus normal control group (in words) ([1]; ICR mouse, 100 mg/kg, 7th day after administration): did not significantly differ
- spleen index versus normal control group (in words) ([1]; ICR mouse, 100 mg/kg, 7th day after administration, 100 mg/kg): significantly increased
- spleen index versus normal control group (in words) ([1]; ICR mouse, 100 mg/kg, 7th day after administration, listed as DC29147, 100 mg/kg): statistical difference
- Kidney index [1, 2]: 1.5 ± 0.2%
- Liver index [1, 2]: 5.3 ± 0.4%
- Spleen index [1, 2]: 0.4 ± 0.0 %
- body weight [1, 3]: 30.0 ± 1.6 g
- food consumption [1, 3]: 18.4 g · day^−1 · cage^−1
- body weight [1, 4]: 30.0 ± 1.7 g
- food consumption [1, 4]: 18.5 g · day^−1 · cage^−1
- body weight [1, 5]: 29.7 ± 1.9 g
- food consumption [1, 5]: 19.0 g · day^−1 · cage^−1
- body weight [1, 6]: 30.0 ± 1.5 g
- food consumption [1, 6]: 19.4 g · day^−1 · cage^−1
- body weight [1, 7]: 30.5 ± 1.5 g
- food consumption [1, 7]: 22.3 g · day^−1 · cage^−1
- body weight [1, 8]: 30.4 ± 1.8 g
- food consumption [1, 8]: 22.6 g · day^−1 · cage^−1
- body weight [1, 9]: 30.6 ± 1.9 g
- food consumption [1, 9]: 23.5 g · day^−1 · cage^−1
- body weight [1, 10]: 29.7 ± 1.8 g
- food consumption [1, 10]: 21.4 g · day^−1 · cage^−1
